± gives the expanded uncertainty stated by the source.
Assay: xn = mol fraction of the nth substance listed
Conditions: 101 kPa, Liquid; for mass density: Vibrating tube method; for viscosity: Falling or rolling sphere viscometry

CCCC[n+]1ccc(C)cc1.O=S(=O)([N-]S(=O)(=O)C(F)(F)F)C(F)(F)F + CCCC[n+]1ccccc1.F[B-](F)(F)F
Conditions | mass density, 323.15 K [kg/m3] | mass density, 333.15 K [kg/m3] | mass density, 343.15 K [kg/m3] | mass density, 353.15 K [kg/m3] | viscosity, 333.15 K [mPa·s] | viscosity, 343.15 K [mPa·s] | viscosity, 353.15 K [mPa·s]
x2 = 0 | 1388.8 ± 1.7 | 1379.7 ± 1.7 | 1370.5 ± 1.7 | 1361.5 ± 1.7 | 16.1 ± 0.4 | 12.3 ± 0.3 | 9.8 ± 0.3
x2 = 0.0575 | 1381.9 ± 1.7 | 1372.8 ± 1.7 | 1363.8 ± 1.7 | 1354.9 ± 1.7 | 16.8 ± 0.4 | 12.8 ± 0.3 | 10.1 ± 0.3
x2 = 0.1136 | 1374.7 ± 1.7 | 1365.8 ± 1.7 | 1356.9 ± 1.7 | 1348 ± 1.7 | 17.5 ± 0.5 | 13.3 ± 0.3 | 10.5 ± 0.3
x2 = 0.2311 | 1358.6 ± 1.7 | 1349.8 ± 1.7 | 1341.1 ± 1.7 | 1332.5 ± 1.7 | 19.5 ± 0.5 | 14.6 ± 0.4 | 11.4 ± 0.3
x2 = 0.3515 | 1340.3 ± 1.7 | 1331.8 ± 1.7 | 1323.3 ± 1.7 | 1314.9 ± 1.7 | 21.6 ± 0.6 | 16 ± 0.4 | 12.4 ± 0.3
x2 = 0.4566 | 1322.8 ± 1.7 | 1314.5 ± 1.7 | 1306.3 ± 1.7 | 1298.1 ± 1.7 | 23.3 ± 0.6 | 17.2 ± 0.4 | 13.3 ± 0.3
x2 = 0.5692 | 1302 ± 1.7 | 1294 ± 1.7 | 1286 ± 1.7 | 1278.1 ± 1.7 | 25.2 ± 0.6 | 18.5 ± 0.5 | 14.1 ± 0.4
x2 = 0.673 | 1280.5 ± 1.7 | 1272.8 ± 1.7 | 1265.1 ± 1.7 | 1257.5 ± 1.7 | 27 ± 0.7 | 19.7 ± 0.5 | 14.9 ± 0.4
x2 = 0.7836 | 1255 ± 1.7 | 1247.6 ± 1.7 | 1240.2 ± 1.7 | 1232.8 ± 1.7 | 28.9 ± 0.7 | 20.9 ± 0.5 | 15.8 ± 0.4
x2 = 0.889 | 1227.6 ± 1.7 | 1220.5 ± 1.7 | 1213.4 ± 1.7 | 1206.3 ± 1.7 | 30.8 ± 0.8 | 22.1 ± 0.6 | 16.6 ± 0.4
x2 = 0.9535 | 1209.3 ± 1.7 | 1202.4 ± 1.7 | 1195.6 ± 1.7 | 1188.8 ± 1.7 | 32.2 ± 0.8 | 23 ± 0.6 | 17.2 ± 0.4

— the NIST ThermoML archive (doi:10.1021/je300972a)
